Like-named read-outs stand apart in the source and are kept apart here.
Key:
Type in all cases: cell-based, Escherichia coli
E. coli EKO-35 = experiment: microbe, parasite or virus in culture; details: for MIC: Escherichia coli, EKO35, technical duplicate
Experimental: (§1) Single colonies were used to inoculate 3 mL of LB followed by incubation at 37° C. for 18 h with aeration at 220 rpm. The bacterial cells were harvested by centrifugation and resuspended in phosphate buffered saline (PBS) ([pH 7.4], 137 mM NaCl (Bioshop), 2.7 mM KCl (Bioshop), 10 mM Na2PO4 (Bioshop) and 1.8 mM K2PO4) to an OD600 nm˜1.0, followed by 1/2000 dilution into MHB II.
(§2) To a 384-well microtiter plate (Corning, untreated polystyrene), 500 nL of compound was dispensed, in duplicate, and serially titrated 2-fold using an Echo 550 acoustic liquid dispenser (Labcyte Inc.). […] As a solvent control, 500 nL of DMSO was applied to wells that contained no compound. Using a multichannel pipette, 50 μL of the prepared bacterial inoculum was applied to each well. To enable background correction post-incubation, the OD600 nm was measured (Biotek Synergy Neo2 microplate reader) prior to incubation. The plates were incubated at 37° C. with aeration at 900 rpm for 18 h. The plates were equilibrated to room temperature and the OD600 nm measured using a BioTek Synergy Neo2 microplate reader. Data was analyzed in both Prism (GraphPad, Version 9.2.0) and Microsoft Excel (Version 16.53). Raw data were input into Microsoft Excel and the pre-incubation OD600 nm measurements were subtracted from the post-incubation OD600 nm measurements. These corrected measurements were input into Prism 9 as a grouped analysis. […] All other MIC values were adjusted accordingly and visualized using the single-color scale grouped heat map function. Identification of compound chemical properties was achieved using DataWarrior (Version 5.5.0). Using PubChem, the SMILES chemical notation for each compound was obtained and compiled in Microsoft Excel. The resulting spreadsheet was input into DataWarrior and properties were calculated from the compound chemical structures.

E. coli ΔtolC = experiment: microbe, parasite or virus in culture
Experimental: as §1, §2

[1] = system: wild-type E. coli K-12 str. BW25113; experiment: microbe, parasite or virus in culture; details: Escherichia coli, BW25113, technical duplicate
Experimental: as §1, §2

EKO-35 araC::macAB Pore = experiment: MIC susceptibility profiling, porinated efflux platform
Experimental: (§3) For genomic integration of the pore, the fhuA ΔC/Δ4L gene and the adjacent gentamicin resistance cassette were amplified using a high-fidelity polymerase and the fhuA_40_Up/gImS_3680_Low primers (Table 4). Integration of the pore gene was performed as described above. The pore gene was introduced into the intergenic region between the glmS and pstS genes, with gene expression under the control of a constitutive promoter (Kearse, M. et al., 2012). Genomic integrations were verified using PCR (Primers: pstS_520_Up/glmS_3680_Low, Table 4). Successful integrations were transformed with pCP20 to remove the gentamicin resistance cassette as previously described. Activity of the pore was confirmed through susceptibility testing with the large antibiotic vancomycin prior to phenotypic profiling and further susceptibility testing.
as §1, §2

EKO-35 araC::acrEF Pore = experiment: as above
Experimental: as §3, §1, §2

EKO-35 araC::emrKY Pore = experiment: as above
Experimental: as §3, §1, §2

EKO-35 araC::mdtEF Pore = experiment: as above
Experimental: as §3, §1, §2

wild-type (WT) K-12-Pore = experiment: microbe, parasite or virus in culture; details: Escherichia coli, technical duplicate
Experimental: as §3, §1, §2

ΔtolC-Pore = experiment: microbe, parasite or virus in culture
Experimental: as §3, §1, §2

EKO-35 araC::emrAB = experiment: MIC susceptibility profiling, efflux platform
Experimental: as §1, §2

EKO-35 araC::mdtEF = experiment: MIC susceptibility profiling, efflux platform
Experimental: as §1, §2

EKO-35 araC::acrBD408A = experiment: MIC susceptibility profiling, efflux platform
Experimental: as §1, §2

EKO-35 araC::macAB = experiment: MIC susceptibility profiling, efflux platform
Experimental: as §1, §2

EKO-35 araC::acrB = experiment: MIC susceptibility profiling, efflux platform
Experimental: as §1, §2

EKO-35 araC::mdtBC = experiment: MIC susceptibility profiling, efflux platform
Experimental: as §1, §2

EKO-35 araC::emrKY = experiment: MIC susceptibility profiling, efflux platform
Experimental: as §1, §2

EKO-35 araC::acrEF = experiment: MIC susceptibility profiling, efflux platform
Experimental: as §1, §2

EKO-35 araC::acrD = experiment: MIC susceptibility profiling, efflux platform
Experimental: as §1, §2

[2] = system: EKO-35 araC::mexCD (MexCD from P. aeruginosa); experiment: MIC susceptibility profiling, efflux platform
Experimental: as §1, §2

COc1ccc(C[C@H](N)C(=O)N[C@H]2[C@@H](O)[C@H](n3cnc4c(N(C)C)ncnc43)O[C@@H]2CO)cc1 [puromycin]
Fold change of MICs (E. coli EKO-35; EKO-35 compared to EKO-35 (reference)): 1 fold | MIC (E. coli EKO-35; Table 10, without pore, read-out: Minimum inhibitory concentration (MIC), EKO-35): 1.56 µg/mL | MIC (E. coli EKO-35; Table 13A, non-porinated, read-out: Minimum Inhibitory Concentration, EKO-35): 1.56 µg/mL | MIC (E. coli ΔtolC; Escherichia coli, 18 h, read-out: Minimum Inhibitory Concentration, ΔtolC): 3.12 µg/mL | Minimum inhibitory concentration (MIC), ΔtolC (E. coli ΔtolC; Table 10, without pore, technical duplicate): 3.125 µg/mL | MIC ([1]; Table 10, without pore, read-out: Minimum inhibitory concentration (MIC), K-12): 50 µg/mL | MIC ([1]; Table 13A, non-porinated, read-out: Minimum Inhibitory Concentration, K-12): 50 µg/mL | Fold changes of MICs (EKO-35 araC::macAB Pore; EKO-35 araC::macAB Pore compared to EKO-35-Pore): 1 fold | MIC (EKO-35 araC::macAB Pore; Escherichia coli, EKO-35 araC::macAB Pore, technical duplicate, read-out: Minimum inhibitory concentration): 0.781 µg/mL | Fold changes of MICs (EKO-35 araC::acrEF Pore; EKO-35 araC::acrEF Pore compared to EKO-35-Pore): 4 fold | MIC (EKO-35 araC::acrEF Pore; Escherichia coli, Table 14A, porinated, technical duplicate, read-out: Minimum inhibitory concentration, EKO-35 araC::acrEF Pore): 3.12 µg/mL | Fold changes of MICs (EKO-35 araC::emrKY Pore; EKO-35 araC::emrKY Pore compared to EKO-35-Pore): 2 fold | MIC (EKO-35 araC::emrKY Pore; Escherichia coli, EKO-35 araC::emrKY Pore, technical duplicate, read-out: Minimum inhibitory concentration): 1.56 µg/mL | Fold changes of MICs (EKO-35 araC::mdtEF Pore; EKO-35 araC::mdtEF Pore compared to EKO-35-Pore): 2 fold | MIC (EKO-35 araC::mdtEF Pore; Escherichia coli, Table 14A, porinated, technical duplicate, read-out: Minimum inhibitory concentration, EKO-35 araC::mdtEF Pore): 1.56 µg/mL | MIC (wild-type (WT) K-12-Pore; Table 10, with pore, read-out: Minimum inhibitory concentration (MIC), Pore K-12): 50 µg/mL | MIC (wild-type (WT) K-12-Pore; Table 14A, porinated, read-out: Minimum inhibitory concentration, K-12 (WT)-Pore): 50 µg/mL | MIC (ΔtolC-Pore; Escherichia coli, 18 h, read-out: Minimum inhibitory concentration, ΔtolC-Pore): 1.56 µg/mL | Minimum inhibitory concentration (MIC), Pore ΔtolC (ΔtolC-Pore; Table 10, with pore, technical duplicate): 1.563 µg/mL | Fold change of MICs (EKO-35 araC::emrAB; EKO-35 araC::emrAB compared to EKO-35): 1 fold | MIC (EKO-35 araC::emrAB; Escherichia coli, Table 13B, non-porinated, technical duplicate, read-out: Minimum Inhibitory Concentration, EKO-35 araC::emrAB): 1.56 µg/mL | Fold change of MICs (EKO-35 araC::mdtEF; EKO-35 araC::mdtEF compared to EKO-35): 1 fold | MIC (EKO-35 araC::mdtEF; Escherichia coli, Table 13A, non-porinated, technical duplicate, read-out: Minimum Inhibitory Concentration, EKO-35 araC::mdtEF): 1.56 µg/mL | Fold change of MICs (EKO-35 araC::acrBD408A; EKO-35 araC::acrBD408A compared to EKO-35): 1 fold | MIC (EKO-35 araC::acrBD408A; Escherichia coli, Table 13B, non-porinated, technical duplicate, read-out: Minimum Inhibitory Concentration, EKO-35 araC::acrBD408A): 1.56 µg/mL | Fold change of MICs (EKO-35 araC::macAB; EKO-35 araC::macAB compared to EKO-35): 1 fold | MIC (EKO-35 araC::macAB; Escherichia coli, Table 13B, non-porinated, technical duplicate, read-out: Minimum Inhibitory Concentration, EKO-35 araC::macAB): 1.56 µg/mL | Fold change of MICs (EKO-35 araC::acrB; EKO-35 araC::acrB compared to EKO-35): 64 fold | MIC (EKO-35 araC::acrB; Escherichia coli, Table 13A, non-porinated, technical duplicate, read-out: Minimum Inhibitory Concentration, EKO-35 araC::acrB): 100 µg/mL | Fold change of MICs (EKO-35 araC::mdtBC; EKO-35 araC::mdtBC compared to EKO-35): 1 fold | MIC (EKO-35 araC::mdtBC; Escherichia coli, Table 13B, non-porinated, technical duplicate, read-out: Minimum Inhibitory Concentration, EKO-35 araC::mdtBC): 1.56 µg/mL | Fold change of MICs (EKO-35 araC::emrKY; EKO-35 araC::emrKY compared to EKO-35): 1 fold | MIC (EKO-35 araC::emrKY; Escherichia coli, Table 13B, non-porinated, technical duplicate, read-out: Minimum Inhibitory Concentration, EKO-35 araC::emrKY): 1.56 µg/mL | Fold change of MICs (EKO-35 araC::acrEF; EKO-35 araC::acrEF compared to EKO-35): 4 fold | MIC (EKO-35 araC::acrEF; Escherichia coli, Table 13A, non-porinated, technical duplicate, read-out: Minimum Inhibitory Concentration, EKO-35 araC::acrEF): 6.25 µg/mL | Fold change of MICs (EKO-35 araC::acrD; EKO-35 araC::acrD compared to EKO-35): 1 fold | MIC (EKO-35 araC::acrD; Escherichia coli, Table 13A, non-porinated, technical duplicate, read-out: Minimum Inhibitory Concentration, EKO-35 araC::acrD): 1.56 µg/mL | Fold change of MICs ([2]; EKO-35 araC::mexCD compared to EKO-35): 4 fold | MIC ([2]; Table 13B, non-porinated, technical duplicate, read-out: Minimum Inhibitory Concentration, EKO-35 araC::mexCD): 6.25 µg/mL

From patent US20230407243A1, “GENETIC PLATFORM TO INVESTIGATE THE FUNCTIONS OF BACTERIAL DRUG EFFLUX PUMPS” (priority 2022, published 2023)
